Assay results taken from the NIST ThermoML archive (doi:10.1021/je050169y).

Columns and labels:
[1] = 101 kPa, Liquid
[2] = xn = mol fraction of the nth substance listed; conditions: 101 kPa, Liquid

CCCCO [butan-1-ol]
[1]
Conditions | mass density [kg/m3] | speed of sound [m/s] | viscosity [mPa·s]
303.15 K | 802.31 | 1227 | 2.274
313.15 K | 794.37 | 1193 | 1.783

CCCCO [butan-1-ol] + ClC(Cl)Cl
[2], x2 = 0
Conditions | mass density [kg/m3] | speed of sound [m/s] | viscosity [mPa·s]
303.15 K | 802.31 | 1227 | 2.274
313.15 K | 794.37 | 1193 | 1.783

CCCO [propan-1-ol]
[1]
Conditions | mass density [kg/m3] | speed of sound [m/s] | viscosity [mPa·s]
303.15 K | 796.66 | 1193 | 1.719
313.15 K | 788.31 | 1159 | 1.363

CCCO [propan-1-ol] + ClC(Cl)Cl
[2], x2 = 0
Conditions | mass density [kg/m3] | speed of sound [m/s] | viscosity [mPa·s]
303.15 K | 796.66 | 1193 | 1.719
313.15 K | 788.31 | 1159 | 1.363

ClC(Cl)Cl [trichloromethane]
[1]
Conditions | mass density [kg/m3] | speed of sound [m/s] | viscosity [mPa·s]
303.15 K | 1469.21 | 969 | 0.534
313.15 K | 1449.74 | 934 | 0.491

ClC(Cl)Cl [trichloromethane] + CCCCO
[2]
Conditions | mass density, 303.15 K [kg/m3] | mass density, 313.15 K [kg/m3] | speed of sound, 303.15 K [m/s] | speed of sound, 313.15 K [m/s] | viscosity, 303.15 K [mPa·s] | viscosity, 313.15 K [mPa·s]
x1 = 0.0512 | – | 823.95 | – | 1172 | – | 1.67
x1 = 0.0513 | 832.44 | – | 1207 | – | 2.125 | –
x1 = 0.0999 | 861.44 | – | 1189 | – | 1.989 | –
x1 = 0.1 | – | 852.45 | – | 1154 | – | 1.566
x1 = 0.149 | 890.91 | 881.47 | 1170 | 1135 | 1.829 | 1.45
x1 = 0.2009 | 922.47 | 912.53 | 1152 | 1116 | 1.683 | 1.341
x1 = 0.2506 | 953.06 | 942.58 | 1134 | 1098 | 1.531 | 1.23
x1 = 0.2999 | 983.75 | 972.85 | 1118 | 1081 | 1.394 | 1.136
x1 = 0.3659 | 1025.5 | 1013.85 | 1097 | 1060 | 1.224 | 1.018
x1 = 0.407 | 1051.86 | 1039.75 | 1084 | 1047 | 1.137 | 0.943
x1 = 0.4515 | 1080.69 | 1067.95 | 1071 | 1034 | 1.045 | 0.878
x1 = 0.4997 | 1112.25 | 1099 | 1056 | 1019 | 0.96 | 0.82
x1 = 0.5502 | 1145.88 | 1132.03 | 1043 | 1006 | 0.877 | 0.758
x1 = 0.6011 | 1180.26 | – | 1030 | – | 0.82 | –
x1 = 0.6012 | – | 1165.78 | – | 993 | – | 0.712
x1 = 0.6527 | 1215.51 | 1200.35 | 1018 | 981 | 0.754 | 0.671
x1 = 0.702 | 1249.87 | – | 1007 | – | 0.709 | –
x1 = 0.7021 | – | 1234 | – | 970 | – | 0.633
x1 = 0.7519 | 1285.1 | 1268.52 | 997 | 961 | 0.676 | 0.615
x1 = 0.802 | 1320.98 | – | 989 | – | 0.636 | –
x1 = 0.8021 | – | 1303.85 | – | 952 | – | 0.579
x1 = 0.8517 | 1357.17 | – | 981 | – | 0.622 | –
x1 = 0.8518 | – | 1339.4 | – | 945 | – | 0.572
x1 = 0.9023 | 1394.7 | – | 975 | – | 0.587 | –
x1 = 0.9024 | – | 1376.18 | – | 939 | – | 0.547
x1 = 0.9509 | 1431.43 | – | 971 | – | 0.569 | –
x1 = 0.951 | – | 1412.42 | – | 936 | – | 0.524
x1 = 1 | 1469.21 | 1449.74 | 969 | 934 | 0.534 | 0.491

ClC(Cl)Cl [trichloromethane] + CCCO
[2]
Conditions | mass density, 303.15 K [kg/m3] | mass density, 313.15 K [kg/m3] | speed of sound, 303.15 K [m/s] | speed of sound, 313.15 K [m/s] | viscosity, 303.15 K [mPa·s] | viscosity, 313.15 K [mPa·s]
x1 = 0.0521 | 834.23 | 825.28 | 1171 | 1136 | 1.628 | 1.302
x1 = 0.0996 | 868.17 | 858.68 | 1153 | 1117 | 1.541 | 1.243
x1 = 0.1504 | 904.1 | 894.03 | 1134 | 1098 | 1.435 | 1.163
x1 = 0.201 | 939.51 | 928.92 | 1116 | 1080 | 1.331 | 1.077
x1 = 0.2498 | 973.47 | 962.29 | 1100 | 1064 | 1.233 | 1.013
x1 = 0.3057 | 1011.95 | 1000.09 | 1083 | 1047 | 1.113 | 0.919
x1 = 0.3499 | 1042.15 | 1029.85 | 1070 | 1034 | 1.044 | 0.872
x1 = 0.4031 | 1078.28 | 1065.26 | 1056 | 1018 | 0.956 | 0.811
x1 = 0.451 | 1110.46 | 1097 | 1042 | 1006 | 0.884 | 0.752
x1 = 0.5056 | 1147.02 | 1132.88 | 1028 | 992 | 0.813 | 0.703
x1 = 0.5541 | 1179.18 | 1164.5 | 1017 | 981 | 0.76 | 0.662
x1 = 0.5994 | 1209.1 | 1193.91 | 1007 | 972 | 0.723 | 0.635
x1 = 0.6511 | 1243.11 | 1227.27 | 997 | 961 | 0.68 | 0.605
x1 = 0.7033 | 1277.26 | 1260.87 | 988 | 951 | 0.654 | 0.592
x1 = 0.7506 | 1308.1 | 1291.08 | 980 | 944 | 0.629 | 0.57
x1 = 0.8 | 1340.17 | 1322.66 | 974 | 939 | 0.608 | 0.558
x1 = 0.8507 | 1373.01 | 1354.88 | 970 | 933 | 0.596 | 0.547
x1 = 0.9001 | 1404.92 | 1386.24 | 967 | 931 | 0.579 | 0.531
x1 = 0.9484 | 1436.03 | 1416.96 | 966 | 931 | 0.562 | 0.517
x1 = 1 | 1469.21 | 1449.74 | 969 | 934 | 0.534 | 0.491
